Assay results: patent publication US20240110200A1, “Recombinant AAV Vectors and Gene Therapies for Treating Brain Diseases” (City University of Hong Kong, priority 2022, published 2024)

How the values were obtained:
[1] = test system: KA-induced chronic epileptic mice; assay: Intrahippocampal kainic acid injection-induced chronic epilepsy (TLE) model, seizure monitoring by MMRS; format: in vivo, C57BL/6J male mice; conditions: 650 nL KA (0.3 mg/mL) intrahippocampal, no intervention
Experimental: C57BL/6J male mice (6˜7 weeks old) are anaesthetized with pentobarbital (100 mg/kg), a craniotomy is performed perpendicularly to the […] of the hippocampus (−2.06 mm posterior to the bregma, −1.80 mm to the midline, and −1.60 mm to the dura), and 650 nL KA (0.3 mg/mL) is injected at a speed of 30 nL/min.
Upon recovering from the anesthesia, the mice are monitored for at least an hour for any signs of acute epileptic seizures before being placed back into their cages for routine monitoring. For the mice only injected with KA (FIG. S16), they are monitored for 16 weeks after the KA injection.
The mice are housed separately under a standard 12-h light/dark cycle and stable temperature (23-25° C.) with free access to food and water. Each KA-injected mouse is monitored and recorded 24 h per day using a 360-smart camera for a minimum of three weeks after surgery. […]
The seizures of the mice are evaluated in a blinded manner; the examiners of the video are blind to the history of the mice. […]
After the C57bL/6J male mice (9-10 weeks old) show a stable occurrence of spontaneous recurrent seizures, epileptic mice are randomly divided into two groups (experimental and control). The daily seizure occurrence is recorded for 2 weeks as the pre-treatment baseline for each mouse (FIG. 6). […]

[2] = test system: GFAP+ cells / Camkll+ cells in cortex and hippocampus; assay: GFAP and Camkll immunostaining of TLE mouse brain; format: in vivo, C57BL/6J male mice; conditions: right intrahippocampal KA-injection; n=10 sections from N=4 mice
Experimental: For immunohistochemistry, mice are deeply anaesthetized by an overdose of pentobarbital sodium. Mice are transcardially perfused with 30 mL cold phosphate-buffered saline (PBS) and 30 mL 4% (w/v) paraformaldehyde (4% PFA). Brain tissue is removed, post-fixed with 4% PFA, and treated with 30% (w/v) sucrose in 4% PFA at 4° C. for 2˜3 days. Brain tissue is sectioned on a cryostat (30 μm for standard staining and 10 μm for Super-Resolution imaging) (Leica CM3500, Germany) and preserved with antifreeze buffer (20% (v/v) glycerine and 30% (v/v) ethylene glycol diluted in PBS) at −20° C. For immunostaining and statistics of co-labelled neurons and axonal synapses in the AC, serial sections containing the AC are selected for analysis. […]
Images are took at 20× magnification and montaged together with the same laser settings between the parallel studies. […] For quantification of co-localization, neurons expressing the indicated reporter are counted using only the corresponding color channel. Then, among these cells, the number of neurons co-expressing the marker of interest is counted by the Nikon imaging analysis software (NIS-Elements Viewer 5.21). […] A neuron is positive for a given marker if the corresponding signal is above background fluorescence. The ratio of neurons co-expressing both markers over the total number of cells expressing only the reporter is then calculated. […]

## C=C(C)[C@H]1CN[C@H](C(=O)O)[C@H]1CC(=O)O [KA, Kainic Acid]
[1]
  recurrent convulsive seizures of stages 3 to 5 at week 4: 5.2±1.52 seizures per day
[2]
  GFAP+ cells in the right hippocampus after 16 weeks: 748.56±74.88 per mm^2
